Where two headings read alike, the source gives them in different places.
Columns and labels:
Neuronal cortical cells = test: Assay for test compound cytoxicity, MTS (Assay 3(d)); format: cell-based, mouse
[1] = tested on: Aβ in extract of tissue from post mortem human AD brain; test: Human brain amyloid solubilisation assay (Assay 9, BAS); format: biochemical
Description: Assay 9. Human Brain Amyloid Solubilisation Assay
This assay was performed in order to assess the ability of a test compound to mobilise Aβ from the insoluble to the soluble phase of an extract of tissue from post mortem human AD brain.
Up to 0.5 g of plaque-bearing cortex without meninges was homogenized using a DIAX 900 homogenizer (Heudolph and Co, Kelheim, Germany) or other suitable device for three 30-second periods at full speed in 2 ml of ice-cold phosphate-buffered saline, pH 7.4. To obtain the phosphate-buffered saline-extractable fraction, the homogenate was centrifuged at 100,000×g for 30 min and the supernatant removed. Alternatively, the tissue was freeze dried then pulverised to form a powder which was then weighed out into aliquots for extraction as above. Supernatant, either freeze-dried and resuspended or in unconcentrated form, was dissolved in 200 μl of Tris-Tricine sodium dodecyl sulfate (SDS) sample buffer pH 8.3 containing 8% SDS, 10% 2-mercaptoethanol. Aliquots (10 μl) were then boiled for 10 minutes before SDS-polyacrylamide gel electrophoresis. The insoluble fraction of the cortical samples was obtained by resuspending the initial pelleted sample in 1 ml of phosphate-buffered saline. A 50-μl aliquot of this suspension was then boiled in […] of sample buffer as above.
Tris-Tricine polyacrylamide gel electrophoresis was performed by loading appropriately diluted samples on to 10% to 20% gradient gels (Novex, San Diego, Calif.) followed by transfer on to 0.2-μm nitrocellulose membrane (Bio-Rad, Hercules, Calif.). Aβ was detected by using monoclonal antibody W02, which detects residues 5 through 8, […] (or another suitable antibody) in conjunction with horseradish peroxidase-conjugated rabbit anti-mouse IgG (Dako, Denmark), and visualized by using enhanced chemiluminescence (eg ECL; Amersham Life Science, Buckinghamshire, UK). Each gel included three lanes containing 0.5, 1, and 2 ng of synthetic Aβ40 (Keck Laboratory, Yale University, New Haven, Conn.) as reference standards.
Blot films were scanned by using a suitable imaging system such as the UVP gel documentation system, and densitometry performed using suitable software, eg UVP Labworks. The dynamic range of the film/scanner was determined by using a step tablet (No. 911ST600, Kodak, Rochester N.Y.), a calibrated film exposed by the manufacturer to provided steps of known increasing intensity. The quantifiable range of signal intensity for densitometric analysis of the mono- and dimeric Aβ bands was based on the comparison with a curve obtained by scanning and densitometry of the step tablet.
All samples were analysed at least twice, and gel loadings and dilutions were adjusted to fit within the quantifiable region of the standard curve. […] The insoluble Aβ being comprised of the pelletable fraction derived from the insoluble amyloid plaque from the above cortical samples and the soluble fraction comprising monomeric and/or oligomeric soluble Aβ.

[2] = tested on: Neuronal cortical cells treated with Aβ1-42; test: Assay for Aβ neurotoxicity and Aβ neuroprotection (Assay 3(c)); format: cell-based, mouse; conditions: 20 uM Aβ1-42, 4 days, MTS
Description: Media was then replaced with Neurobasal media (Invitrogen Life Technologies) and B27 supplements (Invitrogen Life Technologies). Cultures were maintained at 37° C. in 5% CO2. Prior to experimentation, the culture medium was replaced with Neurobasal media and B27 minus antioxidants (Invitrogen Life Technologies).
(c) Assay for Aβ Neurotoxicity and Aβ Neuroprotection
Neuronal cortical cells were cultured for five days as per Assay 2. On day six the neurobasal (NB) media (Invitrogen Life Technologies) and B27 supplement (Invitrogen Life Technologies) were replaced with NB media and B27 supplement (no antioxidants). On day six, test compounds were individually added to the neuronal cell cultures:
Aβ was initially dissolved in 20 mM NaOH to a concentration of 1 mM and sonicated for 5 minutes. The peptide was then diluted in H2O and 10×PBS to a final concentration of 200 uM Aβ in 1×PBS. The peptide was again sonicated for 5 minutes and then spun at 14000 rpm for 5 min and transferred to a fresh tube.
The test compounds were dissolved in 100% DMSO to a concentration of 2.5 mM (10 mM if excess compound was weighed out per vial—then diluted to 2.5 mM). […] Test compounds were not added directly to cells, instead they were added to a 48 well ‘Drug Plate’ as comprised below:
The Drug Plate was incubated at 37° C. for 15 mins. 200 ul of each well was added in triplicate to the corresponding cell plate. The cell plate was incubated at 37 C, for 4 days.
On the 4th day after treating the cells the assay is completed by adding MTS to the cells.

[3] = molecular target: T1, hydrogen peroxide generation by Aβ in the presence of copper (Homo sapiens, UniProt P05067); test: Fluorometric H2O2 assay (Assay 1); format: biochemical; conditions: DCF/HRP, 37 C 60 min, several values in one cell = repeat determinations
T1 construct: The reaction solutions contained Aβ 1-42 at concentrations in the range of 50 nM to 1 μM
Procedure, shortened: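 Aβ1-42 (50 nM–1 μM) with Cu-glycine (2 Cu-Gly : 1 Aβ) and a reductant (dopamine 5 μM or ascorbic acid) was incubated 60 min at 37 °C in PBS pH 7.4 with test compound. H2O2 was detected with 100 μM deacetylated DCF and 0.1 μM HRP by fluorescence against H2O2 standards.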

[4] = BL6J×129sv, mouse, 4 days, 1 uM
[5] = BL6J×129sv, mouse, 4 days, 10 uM
[6] = solubilising plaques relative to PBS
[7] = Peroxide IC50, Aβ 1-42 with Cu-Gly
[8] = Aβ 1-42 with Cu-Gly, read-out: Peroxide IC50

T1 sequence (P05067 672-713 limits assumed): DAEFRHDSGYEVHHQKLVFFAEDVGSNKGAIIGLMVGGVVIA

With `O=S(=O)(O)c1ccc(O)c2ncccc12` [compound 41] the Test Compound Cytoxicity 0.1 um (Neuronal cortical cells; BL6J×129sv, mouse, 4 days) was 95%, the “Test Compound Cytoxicity 1 uM” value (Neuronal cortical cells; [4]) was 100 and the “Test Compound Cytoxicity 10 uM” value (Neuronal cortical cells; [5]) was 100. For the same compound, the “Viable 10 uM” value (Neuronal cortical cells; [5]) was 81.33, the “BAS Score” value [1, 6] was “+” and the “% inhibition Abeta toxicity” value [2] was 12%. For the same compound, the IC50 [3, 7] was 500 nM.

For `Oc1c(Cl)cc(Cl)c2cccnc12` [compound 45], the Test Compound Cytoxicity 0.1 um (Neuronal cortical cells; BL6J×129sv, mouse, 4 days) was 100%, the “Test Compound Cytoxicity 1 uM” value (Neuronal cortical cells; [4]) was 92 and the “Test Compound Cytoxicity 10 uM” value (Neuronal cortical cells; [5]) was 67. The “BAS Score” value [1, 6] was “++”, the “% inhibition Abeta toxicity” value [2] was 28% and the IC50 [3, 8] was 700 nM.

`CCCCN(c1ccc2cccc(O)c2n1)c1ccc2cccc(O)c2n1` [compound 53] was tested, and the Test Compound Cytoxicity 0.1 um (Neuronal cortical cells; BL6J×129sv, mouse, 4 days) was 96%, the “Test Compound Cytoxicity 1 uM” value (Neuronal cortical cells; [4]) was 95 and the “Test Compound Cytoxicity 10 uM” value (Neuronal cortical cells; [5]) was 100. The “Viable 10 uM” value (Neuronal cortical cells; [5]) was 95.8, the “BAS Score” value [1, 6] was “+” and the “% inhibition Abeta toxicity” value [2] was −75%. It also gave an IC50 [3, 8] of 300 nM.

For `Nc1ccc2cccc(O)c2n1` [compound 54], the “Cell viability (% viable cells, MTS)” value (Neuronal cortical cells; 1 uM, 4 days, in %) was 97, the “Viable 10 uM” value (Neuronal cortical cells; 10 uM test compound, repeated lines = repeat determinations, in %) was 99.57 and the “Cell viability (% viable cells, MTS)” value (Neuronal cortical cells; 10 uM, 4 days, in %) was 61. The Cell viability (% viable cells, MTS) (Neuronal cortical cells; 0.1 um, 4 days) was 89%, the “BAS Score” value [1] was “+” and the “% inhibition Abeta toxicity” value [2] was 100%. It also gave an IC50 [3, 7] of 1000 nM.

In the case of `CN(c1ccc2cccc(O)c2n1)c1ccc2cccc(O)c2n1` [compound 56], the Test Compound Cytoxicity 0.1 um (Neuronal cortical cells; BL6J×129sv, mouse, 4 days) is reported as 108%, the “Test Compound Cytoxicity 1 uM” value (Neuronal cortical cells; [4]) is reported as 74 and the “Test Compound Cytoxicity 10 uM” value (Neuronal cortical cells; [5]) is reported as 31. For the same compound, the “BAS Score” value [1, 6] was “+”, the “% inhibition Abeta toxicity” value [2] was 17% and the IC50 [3, 8] was 700 nM.

`Oc1ccc(/C=C/c2ccc3cccc(O)c3n2)cc1` [compound 89] was tested, and the Test Compound Cytoxicity 0.1 um (Neuronal cortical cells; BL6J×129sv, mouse, 4 days) was 87%, the “Test Compound Cytoxicity 1 uM” value (Neuronal cortical cells; [4]) was 92 and the “Test Compound Cytoxicity 10 uM” value (Neuronal cortical cells; [5]) was 101. The “Viable 10 uM” value (Neuronal cortical cells; [5]) was 74.28, the “BAS Score” value [1, 6] was “+” and the “% inhibition Abeta toxicity” value [2] was −31%. The IC50 [3, 8] was 3000 nM.

`Oc1c(Br)cc(-c2ccccc2)c2cccnc12` [compound 806] was tested, and the Test Compound Cytoxicity 0.1 um (Neuronal cortical cells; BL6J×129sv, mouse, 4 days) was 99%, the “Test Compound Cytoxicity 1 uM” value (Neuronal cortical cells; [4]) was 78 and the “Test Compound Cytoxicity 10 uM” value (Neuronal cortical cells; [5]) was 38. The “BAS Score” value [1, 6] was “++”, the “% inhibition Abeta toxicity” value [2] was 36% and the IC50 [3, 8] was < 1200 nM.

Reference: US9302993B2, “8-hydroxy quinoline derivatives” (PRANA BIOTECHNOLOGY LIMITED, priority 2002, dated 2016)
